Test results: the supplement of paper PMC10307832

Experiments:
Assay in all cases: relative viability (nuclei count vs DMSO), 5 days (fraction); higher = more cells survive
[1] = compound: C1CC1C(=O)NC2=NNC3=C2C=CC(=C3)C4=CC(=CC=C4)C(=O)NC5CC5 [XMD13-2]
In short: (§1)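 Acceptance criteria were a control CV below 25% and at least one doubling per plate. Lung cancer cell lines in 1536-well plates got five library-drug doses (not always all listed) √10 apart by pinning and were left 5 days with no medium change. Viability divides treated-well nuclei by vehicle-well nuclei and is the median across plates. Nuclei were counted by MetaXpress from 4× Hoechst images.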

[2] = compound: Cc1ccc(C(=O)Nc2cccc(C(F)(F)F)c2)cc1Nc1cncc(C(N)=O)c1 [ALW-II-49-7]
In short: as §1

[3] = compound: Cc1nc(Nc2ncc(C(=O)Nc3c(C)cccc3Cl)s2)cc(N2CCN(CCO)CC2)n1 [Dasatinib]
In short: as §1

Row | Cell Line | relative viability ([1]; 0.05 µM) | relative viability ([1]; 0.1581 µM) | relative viability ([1]; 0.5 µM) | relative viability ([1]; 1.581 µM) | relative viability ([1]; 5 µM) | relative viability ([2]; 0.08 µM) | relative viability ([2]; 0.253 µM) | relative viability ([2]; 0.8 µM) | relative viability ([2]; 2.53 µM) | relative viability ([2]; 8 µM) | relative viability ([3]; 0.005 µM) | relative viability ([3]; 0.01581 µM) | relative viability ([3]; 0.05 µM) | relative viability ([3]; 0.1581 µM) | relative viability ([3]; 0.5 µM) | relative viability ([3]; 0.075 µM, anchor plate)
1 | IA-LM | 0.967 | 0.982 | 0.977 | 0.87 | 0.883 | 0.939 | 0.74 | 0.744 | 0.504 | 0.305 | 1.01 | 0.994 | 1 | 0.781 | 0.564 | –
2 | NCI-H1734 | 1.1 | 0.848 | 1.03 | 0.869 | 0.748 | 0.933 | 1.04 | 1.01 | 0.886 | 0.822 | 0.863 | 0.772 | 0.777 | 0.508 | 0.51 | 0.481
3 | SK-MES-1 | 1.13 | 1.01 | 1.03 | 0.968 | 1.07 | 0.957 | 0.97 | 0.963 | 0.851 | 0.742 | 1.05 | 0.922 | 0.964 | 0.61 | 0.215 | 0.385
4 | Calu-6 | 1.05 | 1.08 | 1.07 | 0.99 | 1.04 | 0.952 | 1.03 | 0.947 | 0.891 | 0.869 | 0.895 | 0.766 | 0.712 | 0.627 | 0.554 | –
5 | HCC-15 | 1.11 | 0.931 | 1.01 | 0.98 | 0.904 | 1.04 | 0.975 | 0.964 | 1.08 | 0.919 | 1.03 | 0.991 | 0.928 | 0.854 | 0.726 | 0.651
6 | SK-LU-1 | 1.07 | 1.03 | 1.19 | 1.05 | 0.924 | 1.04 | 1.11 | 1.07 | 0.769 | 0.746 | 0.823 | 0.542 | 0.42 | 0.312 | 0.25 | 0.174
7 | NCI-H2023 | 1.18 | 1 | 0.992 | 0.986 | 1.02 | 0.965 | 0.963 | 0.995 | 0.96 | 0.911 | 0.883 | 0.888 | 0.735 | 0.648 | 0.593 | 0.592
8 | HCC-366 | 1.08 | 0.918 | 0.991 | 0.979 | 1.03 | 1.03 | 1.05 | 1.09 | 1.04 | 0.855 | 0.805 | 0.748 | 0.608 | 0.728 | 0.52 | 0.682
9 | NCI-H1355 | 1.12 | 0.961 | 0.995 | 0.949 | 1.02 | 0.939 | 0.963 | 0.953 | 0.957 | 0.928 | 1 | 0.83 | 0.998 | 0.781 | 0.582 | 0.731
10 | NCI-H1650 | 1.08 | 0.936 | 1.17 | 0.951 | 0.907 | 0.854 | 0.789 | 0.836 | 0.985 | 0.985 | 0.868 | 0.769 | 0.6 | 0.388 | 0.338 | 0.336
11 | SW 1573 | 1.08 | 0.998 | 1.09 | 0.941 | 0.874 | 0.976 | 1.12 | 1.04 | 1.05 | 0.938 | 0.931 | 0.915 | 0.839 | 0.672 | 0.564 | 0.517
12 | NCI-H661 | 0.971 | 1.04 | 0.971 | 0.976 | 0.844 | 1.04 | 0.936 | 0.927 | 0.975 | 0.901 | 0.955 | 1.06 | 0.911 | 0.8 | 0.661 | 0.974
13 | LU99A | 1.05 | 1.05 | 1.01 | 1.03 | 0.927 | 0.816 | 1.1 | 0.902 | 0.94 | 0.95 | 0.807 | 0.629 | 0.896 | 0.663 | 0.48 | 0.539
14 | LCLC-97TM1 | 0.974 | 0.917 | 0.95 | 0.7 | 0.903 | 0.97 | 0.905 | 1.09 | 0.755 | 0.865 | 1.17 | 0.97 | 1.05 | 1 | 0.561 | 0.837
15 | LC-2-ad | 1.03 | 1.04 | 1.03 | 0.94 | 0.994 | 0.942 | 1.03 | 0.922 | 1.08 | 0.861 | 1 | 0.984 | 0.924 | 0.674 | 0.35 | 0.601
16 | NCI-H1395 | 1.06 | 0.918 | 0.948 | 0.852 | 1 | 0.941 | 0.992 | 1.1 | 0.917 | 0.851 | 0.91 | 1.03 | 0.783 | 0.442 | 0.429 | 0.435
17 | NCI-H2228 | 1.16 | 0.99 | 1.27 | 1.06 | 1.17 | 1.09 | 0.783 | 0.735 | 0.904 | 0.85 | 0.994 | 0.869 | 0.94 | 0.645 | 0.442 | 0.535
18 | NCI-H1944 | 1.11 | 0.958 | 1.06 | 1.18 | 0.977 | 0.997 | 0.91 | 0.949 | 0.934 | 0.893 | 0.918 | 0.902 | 0.644 | 0.286 | 0.208 | 0.228
19 | HOP-62 | 1.04 | 0.955 | 1.1 | 0.953 | 1.02 | 1.1 | 1.03 | 0.941 | 0.82 | 0.786 | 1.06 | 1 | 0.932 | 0.945 | 0.367 | 0.68
20 | NCI-H2347 | 1.05 | 1.02 | 1.06 | 1.08 | 0.935 | 1.05 | 0.968 | 1.04 | 0.973 | 0.949 | 0.913 | 0.838 | 0.659 | 0.452 | 0.333 | 0.314
21 | NCI-H2087 | 1.3 | 1.19 | 1.17 | 1.01 | 0.962 | 1.07 | 1.01 | 1.06 | 1.02 | 0.915 | 1.02 | 0.941 | 1.23 | 0.937 | 0.453 | 0.856
